Test results: US20240180898A1, “USE OF AMINOTHIAZOLE DERIVATIVE IN TREATMENT OF IMMUNE INFLAMMATION” (INNAMUNE PHARMACEUTICAL CO. LTD., priority 2021, published 2024)

Tests used:
[1] = test system: mouse spleen derived B cells; assay: R848 induced lupus like B cell immune disorder model in vitro; assay type: cell-based; details: TJ-5 10 or 20 μmol/L 3 hours before R848 500 ng/ml 48 hours
Procedure: Preparation and grouping of an in vitro lupus like B cell immune disorder model:
Model preparation: Mouse spleen derived B cells were purified using a magnetic bead sorting kit and cultured in vitro. Stimulating factor CD40L was added to maintain the long-term survival of B cells in vitro. Lupus like B cell immune disorders were induced by stimulating B cells with R848 (500 ng/ml) for 48 hours.
The experiment is divided into four groups, namely: • Control group (without any treatment, normal cultured B cells); • R848 group (model group): Stimulate B cells with R848 (500 ng/ml) for 48 hours; • TJ-5 (10 μM) Group: First use TJ-5 (10 μmol/L) Pre stimulate B cells for 3 hours, then stimulate B cells with R848 (500 ng/ml) for 48 hours; • TJ-5 (20 μM) Group: First use TJ-5 (20 μmol/L) Pre stimulate B cells […] for 3 hours, then stimulate B cells with R848 (500 ng/ml) for 48 hours.
Collect cells and cell culture supernatant for detection after R848 stimulation is completed.

[2] = preclinical safety assessment, intravenous injection; assay type: in vivo
Procedure: Direct intravenous injection of 30 mg/kg or more will cause elevated liver enzyme toxicity, and it has no toxic effect at 10 mg/kg.

heart grafts = assay: allogeneic heart transplantation, Balb/c to B6; assay type: in vivo, mouse
Description: (§1) The paired mice for transplantation: The donor mouse is a balb/c mouse; The recipient mouse is B6 mouse. Transplant the donor's skin or heart separately to the recipient. After skin transplantation, INNA1605 (TJ-M2010-5) was continuously used for 2 weeks and then stopped. About 38% of the transplanted skin was permanently non-rejection. After administering TJ-M2010-5 for two weeks after allogeneic heart transplantation, 60% of the heart grafts were permanently not rejected. In these surviving recipient mice (non-rejection), the hearts of the same donor mice were transplanted for a second time without any treatment. The result was 100% non-rejection of the heart, confirming the development of immune tolerance against the same antigen (see FIGS. 34 and 35).

allergic rhinitis model = assay: OVA allergic rhinitis (AR) model; assay type: in vivo, mouse
Procedure: To establish a model of AR, mice were injected intraperitoneally with 25 μg ovalbumin (OVA) and 2 mg aluminum hydroxide on days 0, 7, and 14 to promote primary sensitization. One week after the primary sensitization, the secondary immunization was built. Mice were intranasally challenged with 3% OVA daily from 21 to 35 days. Animals were divided into three groups: Sham group, AR group and AR+TJ-5 group. After 35 days of OVA administration, the number of mice rubbing and sneezing within 10 min was recorded. Nasal lavage fluid was collected 12 h after OVA treatment under anesthesia.

dry eye disease model = assay: experimental dry eye (EDE) model; assay type: in vivo, mouse; details: day 9, vs EDE group
Description: Dry eye disease was induced by placing mice in a experimental dry eye (EDE) condition and administering scopolamine to maximize ocular surface dryness. Animals were divided into three groups: non-EDE group, EDE group and EDE+TJ-5 group. Mice were euthanized on day 9 for cellular and molecular analysis.

[3] = test system: bone marrow derived macrophages; assay: bone marrow derived macrophage pyroptosis model (LPS + ATP); assay type: cell-based
Procedure: Preparation and grouping of bone marrow derived macrophage pyroptosis model:
Model preparation: After LPS (500 ng/ml) stimulation of bone marrow derived macrophages for 6 hours, ATP (5 mmol/L) stimulation for 2 hours, followed by cell collection and supernatant detection.
The experiment was divided into four groups, namely: • Control group (normal cell culture medium), • Model group (with LPS and ATP stimulation added to the culture medium), • TJ-5 (10 μmol/L) group (2 hours before LPS stimulation, administer 10 μmol/L TJ-5 drug stimulation), • TJ-5 (30 μmol/L) group (2 hours before LPS stimulation, administer 30 μmol/L TJ-5 drug stimulation).
Collect cells and their supernatant for detection at the endpoint of the experiment.

[4] = test system: H22 hepatocellular carcinoma cells; assay: subcutaneous H22 hepatocellular carcinoma implantation; assay type: in vivo, mouse; details: balb/c mice
Description: H22 hepatocellular carcinoma cells were subcutaneously implanted in balb/c mice and allowed to grow freely. The animals were divided into two groups: the INNA1605 (TJ-M2010-5) group and the non-drug control group.

transplanted skin = assay: allogeneic skin transplantation, Balb/c to B6; assay type: in vivo, mouse; details: used for 2 weeks then stopped
Description: as §1

IRI model of mouse liver = assay: hepatic IRI model, western blotting of liver protein; details: in vivo
Description: The IRI model of mouse liver was established. Animals were divided into three groups: Sham group, IRI group and IRI+TJ-5 group. Protein extracted from mouse liver was detected.

skin wound = assay: full-thickness dorsal skin wound model; assay type: in vivo, mouse
Description: The mice were anesthetized with isoflurane, and 1.5×0.5 cm full-thickness defects were created on their dorsal skin. Animals were divided into three groups: Sham group, Vehicle group and TJ-5 group. After 1 week, mice were sacrificed and wound tissue was harvested for analysis.

high-fat diet obese mice = assay: high-fat diet obesity and fatty liver model; assay type: in vivo, mouse
Description: Feed B6 mice with a high-fat diet (HFD) to create an obesity model. Divide the animals into three groups: normal diet group, high-fat diet group, and high-fat diet group with INNA1605 (TJ-M2010-5) added at the same time. Conduct three control groups to measure body weight, inguinal and epididymal fat size, liver size, and examine the liver and various adipose tissues of each group.

[5] = TJ-5 10 or 30 μmol/L before LPS + ATP

O=C(CCN1CCN(Cc2ccccc2)CC1)Nc1nc(-c2ccccc2)cs1 [INNA1605, 3-(4-benzylpiperazine-1-yl)-N-(4-phenylthiazole-2-yl) propionamide]
abnormal activation and differentiation of B cells [1]: can inhibit abnormal activation and differentiation of B cells | secretion of B cell autoantibodies and inflammatory factors [1]: inhibit the secretion of B cell autoantibodies and inflammatory factors | dose causing elevated liver enzyme toxicity ([2]; direct intravenous injection): ≥ 30 mg/kg | dose with no toxic effect ([2]; direct intravenous injection): 10 mg/kg | toxicity to the body ([2]; preclinical trial results): low toxicity to the body | heart grafts permanently not rejected (heart grafts; administered for two weeks): 60% | non-rejection of second heart of the same donor mice (heart grafts; surviving recipient mice, second transplant without any treatment): 100% | levels of IL-4, IL-1β, IL-18 and TNF-α in nasal mucosa (allergic rhinitis model; mouse, in vivo): decreased | sneezing and nasal rubbing (allergic rhinitis model; within 10 min after 35 days of OVA): relieved these symptoms | corneal fluorescein staining score (dry eye disease model): significantly lower corneal fluorescein staining score | expression of IL-1β, TNF-α, MCP-1 and IL-6 in corneal tissues (dry eye disease model): reduced expression | apoptosis (PI+ cells) of bone marrow derived macrophages ([3]; TJ-5 10 or 30 μmol/L 2 hours before LPS 500 ng/ml 6 hours + ATP 5 mmol/L 2 hours): can inhibit the apoptosis of bone marrow derived macrophages induced by LPS and ATP | activation and cleavage of GSDMD [3, 5]: significantly inhibits the activation and cleavage of GSDMD | assembly and activation of NLRP3 inflammasomes [3, 5]: can block the assembly and activation of NLRP3 inflammasomes | classical and non classical cell pyroptosis pathways [3, 5]: inhibit both classical and non classical cell pyroptosis pathways | maturation and release of Pro-IL-1b and Pro-IL-18 [3, 5]: inhibiting the maturation and release | secretion of LDH in cell culture supernatant [3, 5]: reduce the secretion of LDH | secretion of various inflammatory factors [3, 5]: reducing the secretion of various inflammatory factors | tumor size [4]: significantly smaller than that in the control group | transplanted skin permanently non-rejection (transplanted skin): About 38% | GSDMD cleavage in liver (IRI model of mouse liver): effectively inhibited GSDMD cleavage | NLRP3, cleavage of caspase-1 (upregulated) and pro-caspase-1 (downregulated) following IRI (IRI model of mouse liver): this trend was reversed | cleavage of caspase-11 (IRI model of mouse liver): effectively inhibited cleavage of caspase-11 | skin scar formation (skin wound; FIG. 42): prevents skin scar formation | levels of IL-1β, IL-6, TNF-α, G-CSF, Col I, and α-SMA mRNAs in wound tissue (skin wound; after 1 week, vs untreated): significantly lower | wound area (skin wound; vs vehicle): significant decrease in wound area compared to the vehicle | adipose tissue, liver, and body weight (high-fat diet obese mice; B6 mice, added with high-fat diet, FIG. 37): significantly smaller than those of the obese group and close to those of normal mice | weight of obese mice fed with high-fat diet (high-fat diet obese mice; FIG. 25): significantly reduced the weight of high-fat diet obese mice | lipid droplets in the adipose tissue and liver (high-fat diet obese mice; pathological examination, FIG. 38): significantly smaller than those of the obese group, and were similar to normal mice
